Key:
Format in all cases: cell-based
[1] = test system: ΔERGIC-53 HCT116 cells; assay: EPO secretion level (ELISA) from ERGIC-53 KO HCT116 cells
Description: (§1) The guide RNAs (gRNAs) flanking the target enhancer regions for ERGIC-53 and MCFD2 were designed using ToolGen’s dRGEN synthesis service (Seoul, South Korea). The target DNA sequences of the gRNAs used in the present study were as follows: for MCFD2 deletion, […], and for ERGIC-53 deletion, […]. The gRNA expression plasmids (pRGEN-U6-sgRNA) were purchased from ToolGen. To generate the KO cells of MCFD2 or ERGIC-53, individual gRNA plasmids and a plasmid-expressing Cas9-green fluorescent protein (GFP) (Addgene, catalog #44719) were transiently transfected into HCT116 cells, which are diploid cells suitable for genome editing using the CRISPR/Cas9 method, in a six-well plate using polyethylenimine “Max” (Polysciences Inc., Warrington, PA) and a Cas9:gRNA molar ratio of 1:5 as described previously. At 48 h post transfection, cells with high GFP expression were identified using fluorescence-activated cell sorting with the BD FACSAria II cell sorter (BD Biosciences, San Jose, CA). For knocking out ERGL in the wild-type and ERGIC-53-KO cells, the Guide-it CRISPR/Cas9 System (green/red) (Takara Bio Inc., Kusatsu, Japan) was used for the cloning and expression of target single gRNAs, whose target ERGL DNA sequences were […] and […]. The two constructed pGuide-it Vectors (green and red) were transiently transfected into HCT116 cells. At 48 h post transfection, cells with high ZsGreen1 and tdTomato expression were identified using fluorescence-activated cell sorting. Sorted cells were plated into individual wells of a 96-well plate and then re-plated as single cells in 6 cm dishes. The deletions in the clones were confirmed by polymerase chain reaction and sequencing analysis (Supplementary Figs. 8, 9, 10, and 11).
(§2) For expression of the FVIII and FV full-length and deletion mutant proteins in mammalian cells, the codon-optimized FVIII and FV genes were inserted into the p3XFLAG-CMV-14 Expression Vector and p3XFLAG-CMV-9 Expression Vector, respectively (Sigma-Aldrich, St. Louis, MO). For the expression of the wild-type and mutated AAT, EPO, and sFγRIIIa in mammalian cells, the corresponding genes (purchased from FASMAC Co., Ltd., Atsuki, Japan) were inserted into the p3XFLAG-CMV-9 Expression Vector (Sigma-Aldrich). […]
(§3) The secreted levels of FVIII and FV antigens in the culture medium were determined with an sandwich enzyme-linked immunosorbent assay (ELISA) method using the VisuLize FVIII Antigen Kit (Affinity Biologicals Inc., Ancaster, ON) and the Asssay Max™ Human Factor V ELISA Kit (ASSAYPRO, MO), respectively. The secreted levels of AAT and EPO antigens in the culture medium were determined with an ELASA method using the anti-AAT antibody (Agilent, Santa Clara, CA) and anti-Flag M2 antibody (Sigma-Aldrich), respectively.

[2] = test system: ERGL KO HCT116 cells; assay: EPO secretion level (ELISA) from ERGL KO HCT116 cells
Description: as §1, §2, §3

[3] = test system: ΔMCFD2 HCT116 cells; assay: EPO secretion level (ELISA) from MCFD2 KO HCT116 cells
Description: as §1, §2, §3

[4] = test system: HCT116 cells; assay: RUSH imaging of ER-to-Golgi transport; details: for colocalized fraction with GM130 (Manders' M1), average: mScarlet-I fusion
Description: For live-cell imaging using RUSH system, li-Str_ST-SBP-mCherry (Plasmid #65269) was purchased from Addgene. We replaced mCherry with mScarlet-I-EPO or mScarlet-I-EPO-motif (SbfI/XbaI). HCT116 cells were plated on 35-mm glass-based dishes, which were coated with poly-L-lysine, and grown overnight. RUSH plasmids to express mScarlet-I-EPO and mScarlet-I-EPO-motif were individually transfected into the cells using Expifectamine^TM 293 reagent. After 24 h, the medium was changed into DMEM including 40 μM (+)-biotin for starting the translocation form ER. […] After blocking with Blocking One solution (Nacalai Tesque), the cells were incubated with polyclonal rabbit anti-GM130 (Proteintech, 11308-1-AP, dilution 1 :1000) and then with Alexa Fluor 488-conjugated anti-rabbit IgG antibody [Jackson ImmunoResearch (West Grove, PA), 711-545-152, dilution 1:1000] in 20 mM Tris-HCl (pH 7.6) containing 150 mM NaCl and 0.05% Tween-20. Cell images were recorded using a fluorescence microscope BZ-X700 and BZ-H3XF/Sectioning Module (Keyence Co., Osaka, Japan) and analyzed by Fiji[31]. For quantification of co-localization of EPO proteins and GM130, the images were thresholded by the Otsu method and analyzed by calculating Manders’ coefficient (M1) with Coloc2 plugin[32]. Because of abnormal distribution of the imaging data based on Shapiro–Wilk normality test, nonparametric statistics were used for the analysis. All statistical analysis was performed in the R statistical environment version 3.5.3[33].

[5] = average, n = 3, EPO in wild type = 1

Substance: EPO: recombinant Flag-tagged erythropoietin without motif (Fig. 5 prints EPO for mScarlet-I-EPO)
- EPO secretion level (Figure 4D), average [1, 5]: 1.297
- EPO secretion level (Figure 4D) ([1]; replicate 1): 1.122
- EPO secretion level (Figure 4D) ([1]; replicate 2): 1.395
- EPO secretion level (Figure 4D) ([1]; replicate 3): 1.373
- EPO secretion level (Figure 4D), average [2, 5]: 0.7808
- EPO secretion level (Figure 4D) ([2]; replicate 1): 0.6104
- EPO secretion level (Figure 4D) ([2]; replicate 2): 0.9026
- EPO secretion level (Figure 4D) ([2]; replicate 3): 0.8293
- EPO secretion level (Figure 4D), average [3, 5]: 0.9208
- EPO secretion level (Figure 4D) ([3]; replicate 1): 0.5997
- EPO secretion level (Figure 4D) ([3]; replicate 2): 1.0013
- EPO secretion level (Figure 4D) ([3]; replicate 3): 1.162
- colocalized fraction with GM130 (Manders' M1) ([4]; 0 min, Figure No. 1): 0.028
- colocalized fraction with GM130 (Manders' M1) ([4]; 0 min, Figure No. 2): 0.024
- colocalized fraction with GM130 (Manders' M1) ([4]; 0 min, Figure No. 3): 0.051
- colocalized fraction with GM130 (Manders' M1) ([4]; 0 min, Figure No. 4): 0.098
- colocalized fraction with GM130 (Manders' M1) ([4]; 0 min, Figure No. 5): 0.14
- colocalized fraction with GM130 (Manders' M1) ([4]; 0 min, Figure No. 6): 0.098
- colocalized fraction with GM130 (Manders' M1) ([4]; 0 min, Figure No. 7): 0.128
- colocalized fraction with GM130 (Manders' M1) ([4]; 0 min, Figure No. 8): 0.018
- colocalized fraction with GM130 (Manders' M1) ([4]; 0 min, Figure No. 9): 0.026
- colocalized fraction with GM130 (Manders' M1), average ([4]; 0 min after biotin (40 μM), n = 9 cells): 0.06789
- colocalized fraction with GM130 (Manders' M1) ([4]; 30 min, Figure No. 1): 0.115
- colocalized fraction with GM130 (Manders' M1) ([4]; 30 min, Figure No. 2): 0.302
- colocalized fraction with GM130 (Manders' M1) ([4]; 30 min, Figure No. 3): 0.628
- colocalized fraction with GM130 (Manders' M1) ([4]; 30 min, Figure No. 4): 0.57
- colocalized fraction with GM130 (Manders' M1) ([4]; 30 min, Figure No. 5): 0.472
- colocalized fraction with GM130 (Manders' M1) ([4]; 30 min, Figure No. 6): 0.508
- colocalized fraction with GM130 (Manders' M1) ([4]; 30 min, Figure No. 7): 0.39
- colocalized fraction with GM130 (Manders' M1) ([4]; 30 min, Figure No. 8): 0.267
- colocalized fraction with GM130 (Manders' M1) ([4]; 30 min, Figure No. 9): 0.53
- colocalized fraction with GM130 (Manders' M1) ([4]; 30 min, Figure No. 10): 0.285
- colocalized fraction with GM130 (Manders' M1), average ([4]; 30 min after biotin (40 μM), n = 10 (EPO) or 13 (EPO-motif) cells): 0.4067
- ER-to-Golgi trafficking ([4]; 30 min after biotin addition): localized in the Golgi to varying extents depending on the C-terminal motif
- localization in RUSH imaging ([4]; before addition of biotin (time 0)): typical ER localization

From paper PMC7069976, “Improved secretion of glycoproteins using an N-glycan-restricted passport sequence tag recognized by cargo receptor” (Nature Communications, 2020)
